Measurements taken from patent US10590413B2, “Chiral control” (WAVE LIFE SCIENCES LTD., priority 2012, dated 2020).
Read-outs that look alike come from different tables or passages of the source. Strand notation (5' to 3'): a small letter for the sugar, then the base; units joined by * are phosphorothioate-linked, units joined directly phosphodiester-linked; [ ] holds rarer units or linkages, { } end groups; capitals alone tell only the bases. [Rp] = phosphorothioate linkage, Rp; [Sp] = phosphorothioate linkage, Sp; e = 2'-O-(2-methoxyethyl) (MOE); [5mC] = 5-methylcytosine; d = 2'-deoxy (DNA)

Key:
Murine IL-6 secretion = details: cited from earlier work
[1] = tested on: CpG-induced cytokine secretion; details: RALB/c spleen cells, 24 hr, ELISA, cited from earlier work; for IL-12 secretion: 2 × 10^7 cells/ml, indicated ODN alone; for CpG-S-induced IL-12 secretion: IL-12 secretion induced by addition of CpG ODN 1619 at 30 μg/ml
[2] = tested on: ODN-induced cytokine expression; details: ELISA on supernatants from DBA/2 spleen cells, 2 × 10^7 cells/ml, 24 hr, ODN at 30 μg/ml; cited from earlier work
NK LU = details: PBMC, phosphorothioate ODN, cited from earlier work
[3] = tested on: TNF-α and IL-12 expression; details: cell line 3774, no activator, inhibitor at head concentration: Bafilomycin 250 nM, Chloroquine 2.5 μg/ml, Monensin 10 μM, cited from earlier work; for TNF-α, activator: Medium (inhibitor alone): NAC 50 mM, TPCK 50 μM, Gliotoxin 0.1 μg/ml, Bisgliotoxin 0.1 μg/ml, medium alone 37; for IL-12, activator: Medium (inhibitor alone): medium alone 147
complementary RNA = assay: Thermal denaturation experiment (Tm) of DNA strand with complementary RNA (Example 49); type: binding; details: duplex with complementary RNA, equimolar 0.5 μM in 1×PBS; first derivative of 254 nm absorbance curve
Method: Each DNA strand was mixed with complementary RNA in equimolar concentration of 0.5 μM in 1×PBS. Total 2.5 mL solution was prepared for each duplex and the mixture was heated at 90° C. for 2 min and was allowed to cool down over the course of several hours. The mixtures were then stored at 4° C. for 2 hrs. Absorbance at 254 nm was recorded at an interval of 0.5 min starting the temperature gradient from 15° C. to 90° C. with rise of 0.5° C./minute, using a Perkin Elmer UV-spectrophotometer equipped with a Peltier unit. The 254 nm absorbance was plotted against the temperature and the Tm values were calculated from the respective first derivative of each curve.

[4] = tested on: Apolipoprotein B (Apo B) (NM_000384); assay: Apo B gene expression in Hep3B cells after Lipofectamine 2000 transfection, real-time PCR SYBR green (Example 50); type: cell-based, Homo Sapiens; details: for IC50: Apo B mRNA, Hep3B cells
Method: After checking OD all oligonucleotide candidate molecules were diluted to a starting concentration of 20 μM. Multidose forward transfection experiment was setup in 96-well plates using Hep3B cells (ATCC®, Cat. HB-8064™) using Lipofectamine 2000 (Life Technologies, Cat. 11668-019) transfection reagent.
2×10^4 Hep3B cells per well were seeded and incubated for 24 hours at 37° C. in a CO2 incubator in 100 μl of antibiotic free MEM medium (Life Technologies, Cat. 11095098) containing 10% FBS and 1% Glutamax I (Life Technologies, Cat. 35050061). Twelve dilutions were setup in nuclease free water (Table E-16).
For each well, 0.5 μL of Lipofectamine 2000 were mixed with 9.5 μL of Opti MEM I reduced serum medium (Life Technologies, Cat. 31985062) and incubated for 5 minutes. Following incubation, 10 μL of each of the candidates at the reported concentrations was mixed with the diluted Lipofectamine 2000 by gentle pipetting. The mixture was then incubated for 20 minutes at room temperature to allow for complex formation. During this time the cell growth medium was replaced with 80 μL of fresh antibiotic free MEM as previously described. 20 μL of lipid-oligo complex was gently mixed into each well bringing the total volume to 100 μL. The cells were then incubated for 24 hours at 37° C. in a CO2 incubator.
After 24 hour incubation the cell growth medium was removed and RNA was extracted using a Dynabeads mRNA Direct kit (Life Technologies, Cat. 61012) per the instructions provided in the kit manual without modifications. This magnetic Oligo (dT)^25 bead system allows for cost-effective and robust high-throughput poly (A) RNA extraction circumventing DNAse treatment. RNA was eluted in nuclease-free water and stored at −80° C.
10 μL of RNA was used in a 20 μL cDNA synthesis reaction using a High Capacity cDNA Reverse Transcription Kit (Life Technologies, Cat. 4374967) using the kit protocol with RNAse Inhibitor. The reverse transcription was performed in a 96-well format on a C1000 Touch thermal cycler (Biorad, Cat. 185-1196EDU).
Gene expression was measured by quantitative PCR using a LightCycler® 480 SYBR Green I Master (Roche, Cat. 04707516001) on LightCycler 480 Real-Time PCR instrument. Primers for the Homo Sapiens sequences of the target Apolipoprotein B (Apo B) (NM_000384) and endogenous control Glyceralydhyde-3-phosphate dehydrogenase (GAPDH) (NM_002046) were designed and ordered from IDT (Table E-17).
Measurement of the target and endogenous control was performed in separate wells using material from the same cDNA template. SYBR green assay PCR conditions were setup as described in the SYBR Green I Master protocol (Table E-18).
The data is a result of 3 biological replicates. All samples were compared to Naïve untransfected control. The following results were observed when evaluating gene expression by real-time PCR using SYBR green (Table E-19, FIG. 5).

Mouse B Cells = details: mean and std. dev. of at least 3 experiments, compared to wells with no added ODN, cited from earlier work
[5] = T cell depleted spleen cells from DBA/2 mice, phosphodiester O-ODN 20 μM, 24 hr, mean ± SD of triplicates
[6] = expt. 1 (one donor), US 6,214,806 Table 5
[7] = expt. 1, cells alone 0.00, US 6,239,116 Table 11
[8] = 24 hours after transfection, read-out: IC50 (nM) (rounded up to single digit)
[9] = Complete IC50 data evaluated by SYBR green, 24 hours, 3 biological replicates, read-out: IC50

5b (DNA ATGGAAGGTCCAACGTTCTC; chemistry not given here) [Oligonucleotide 5b]
IL-6 (Murine IL-6 secretion; [5]): 1124.5 ± 126.2 pg/mL | IL-6 (Murine IL-6 secretion; murine IL-6 secretion): 1124.5 ± 126.2 pg/mL

5c (DNA ATCGACTCTCGAGCGTTCTC; chemistry not fully specified) [Oligonucleotide 5c]
IL-6 (Murine IL-6 secretion; [5]): 1783.0 ± 189.5 pg/mL | IL-6 (Murine IL-6 secretion; murine IL-6 secretion): 1783.0 ± 189.5 pg/mL

5d (DNA ATGGAAGGTCCAGTGTTCTC; chemistry not given here) [Oligonucleotide 5d]
IL-6 (Murine IL-6 secretion; [5]): ≤10 pg/mL | IL-6 (Murine IL-6 secretion; murine IL-6 secretion): ≤10 pg/mL

5e (DNA ATCGACTCTCGAGCCTTCTC; Z modified cytosine, further chemistry not given here) [Oligonucleotide 5e]
IL-6 (Murine IL-6 secretion; [5]): 851.1 ± 114.4 pg/mL | IL-6 (Murine IL-6 secretion; murine IL-6 secretion): 851.1 ± 114.4 pg/mL

5f (DNA ATCGACTCTCGAGCGTTCTC; Z-modified nucleotides, chemistry not fully specified) [Oligonucleotide 5f]
IL-6 (Murine IL-6 secretion; [5]): ≤10 pg/mL | IL-6 (Murine IL-6 secretion; murine IL-6 secretion): ≤10 pg/mL

1895 (DNA GCGCGCGCGCGCGCGCGCGC; chemistry not given here) [Oligonucleotide 1895]
IL-12 secretion [1]: 123 pg/mL | CpG-S-induced IL-12 secretion [1]: 2719 pg/mL

1896 (DNA CCGGCCGGCCGGCCGGCCGG; chemistry not given here) [Oligonucleotide 1896]
IL-12 secretion [1]: 292 pg/mL | CpG-S-induced IL-12 secretion [1]: 2740 pg/mL

1952 (DNA TCCATGTCGTTCCGCGCGCG; chemistry not given here) [Oligonucleotide 1952]
ODN-induced cytokine expression IFN-γ [2]: 2135 pg/mL | ODN-induced cytokine expression IL-6 [2]: 559 pg/mL | ODN-induced cytokine expression IL-12 [2]: 1615 pg/mL

1953 (DNA TCCATGTCGTTCCTGCCGCT; chemistry not given here) [Oligonucleotide 1953]
ODN-induced cytokine expression IFN-γ [2]: 2000 pg/mL | ODN-induced cytokine expression IL-6 [2]: 557 pg/mL | ODN-induced cytokine expression IL-12 [2]: 1854 pg/mL

1959 (DNA GCGGCGGGCGGCGCGCGCCC; chemistry not given here) [Oligonucleotide 1959]
IL-12 secretion [1]: 270 pg/mL | CpG-S-induced IL-12 secretion [1]: 2539 pg/mL

1966 (DNA dT*dC*dG*dT*dC*dG*dC*dT*dG*dT*dC*dT*dC*dC*dG*dC*dT*dT*dC*dT*dT) [Oligonucleotide 1966]
NK LU, expt. 1 (NK LU; [6]): 2.62 LU | NK LU, expt. 1 (NK LU; [7]): 2.62 LU

1990 (DNA dT*dC*dC*dA*dT*dG*dC*dG*dT*dG*dC*dG*dT*dG*dC*dG*dT*dT*dT*dT) [Oligonucleotide 1990]
NK LU, expt. 1 (NK LU; [6]): 2.10 LU | NK LU, expt. 1 (NK LU; [7]): 2.10 LU

1991 (DNA dT*dC*dC*dA*dT*dG*dC*dG*dT*dT*dG*dC*dG*dT*dT*dG*dC*dG*dT*dT) [Oligonucleotide 1991]
NK LU, expt. 1 (NK LU; [6]): 0.89 LU | NK LU, expt. 1 (NK LU; [7]): 0.89 LU

19792 (DNA TCCATGTCGTTCCTGTCGTT; phosphorothioate, Z modified cytosine, chemistry not fully specified) [Oligonucleotide 19792]
NK LU, expt. 1 (NK LU; [6]): 1.32 LU

CCN(CC)CCCC(C)Nc1ccnc2cc(Cl)ccc12 (centres unmarked) [Chloroquine, chloroquine, reference compound]
TNF-α, activator: Medium (inhibitor alone) [3]: 27 pg/mL | IL-12, activator: Medium (inhibitor alone) [3]: 20 pg/mL

C[Si](C)(C)C[C@@H](O)[C@@H]1CCCN1 [Compound 5a, (S)-2-(Trimethylsilyl)-1-((S)-1-pyrrolidin-2-yl)ethanol]
IL-6 (Murine IL-6 secretion; [5]): 1096.4 ± 372.0 pg/mL | IL-6 (Murine IL-6 secretion; murine IL-6 secretion): 1096.4 ± 372.0 pg/mL

CN1C(=O)[C@]23CC4=CC=C[C@H](O)[C@H]4N2C(=O)[C@@]1(CO)SS3 [Gliotoxin]
TNF-α, activator: Medium (inhibitor alone) [3]: 17 pg/mL

CC[C@@]1([C@@H]2O[C@@H]([C@H]3O[C@@](O)(CO)[C@H](C)C[C@@H]3C)C[C@@H]2C)CC[C@H]([C@]2(C)CC[C@]3(C[C@H](O)[C@@H](C)[C@@H]([C@@H](C)[C@@H](OC)[C@H](C)C(=O)O)O3)O2)O1 [Monensin]
TNF-α, activator: Medium (inhibitor alone) [3]: 22 pg/mL | IL-12, activator: Medium (inhibitor alone) [3]: 73 pg/mL

CC(=O)N[C@@H](CS)C(=O)O [NAC]
TNF-α, activator: Medium (inhibitor alone) [3]: 10 pg/mL

Cc1ccc(S(=O)(=O)N[C@@H](Cc2ccccc2)C(=O)CCl)cc1 [TPCK]
TNF-α, activator: Medium (inhibitor alone) [3]: 24 pg/mL

(Rp, Rp, Rp, Rp, Rp, Sp, Sp, Sp, Sp, Sp, Sp, Sp, Sp, Sp, Rp, Rp, Rp, Rp, Rp)-d[GsCsCsTsCsAsGsTsCsTsGsCsTsTsCsGsCsAsCsC] (DNA GCCTCAGTCTGCTTCGCACC; DNA, linkages [Rp]5 [Sp]9 [Rp]5 (s phosphorothioate, o phosphodiester), methylation of C not given here) [Oligonucleotide 103]
Tm (° C.) ± 0.5 (complementary RNA): 63.4 °C | IC50 [4, 8]: 6 nM | IC50 [4, 9]: 5.73 nM | Stimulation Index, 3H Uridine (Mouse B Cells; US 6,239,116 Table 1): 6.1 ± 1.4 | Stimulation Index, IgM Production (Mouse B Cells; US 6,239,116 Table 1): 19.2 ± 5.2 | Stimulation Index, 3H Uridine (Mouse B Cells): 6.1 ± 1.4

(Sp, Sp, Sp, Sp, Sp, Rp, Rp, Rp, Rp, Rp, Rp, Rp, Rp, Rp, Sp, Sp, Sp, Sp, Sp)-d[GsCsCsTsCsAsGsTsCsTsGsCsTsTsCsGsCsAsCsC] (DNA GCCTCAGTCTGCTTCGCACC; DNA, linkages [Sp]5 [Rp]9 [Sp]5 (s phosphorothioate, o phosphodiester), methylation of C not given here) [Oligonucleotide 104]
Tm (° C.) ± 0.5 (complementary RNA): 63.5 °C | IC50 [4, 8]: 4 nM | IC50 [4, 9]: 4.29 nM | activity compared to Mipomersen (120) ([4]; from Table E-19 IC50, Hep3B): more active

Bafilomycin
TNF-α, activator: Medium (inhibitor alone) [3]: 46 pg/mL | IL-12, activator: Medium (inhibitor alone) [3]: 102 pg/mL

Mipomersen (DNA eG*e[5mC]*e[5mC]*eT*e[5mC]*dA*dG*dT*d[5mC]*dT*dG*d[5mC]*dT*dT*d[5mC]*eG*e[5mC]*eA*e[5mC]*e[5mC]) [Oligonucleotide 120, "Mipomersen, which is a stereorandom oligonucleotide mixture (Oligonucleotides 104, 105 ... compared to 120)", reference compound]
Tm (° C.) ± 0.5 (complementary RNA): 65.3 °C | IC50 [4, 8]: 4 nM | IC50 [4, 9]: 4.39 nM
